The values below come from patent publication US20240116998A1, “GLUCAGON-LIKE PEPTIDE-1 RECEPTOR ANTAGONISTS” (INDIANA UNIVERSITY RESEARCH AND TECHNOLOGY CORPORATION, priority 2021, published 2024).

Structures are written as SMILES. Converted amounts (≈) assume the structure as drawn. Starred links: 1 amine or outer side, 2 acyl side, 3 side chain; linkers in the order of their positions; H or OH if unused. Non-standard residues stand in square brackets, D forms with d. Residues, ends and D or L forms follow the SMILES beside them. Groups on a side chain read outwards from the residue. *: point of attachment. γGlu = O=C(O)[C@H](CCC(=O)[*:2])N[*:1]; Palmitoyl = CCCCCCCCCCCCCCCC(=O)*; AEEA = NCCOCCOCC(=O)O; Aib = CC(C)(N)C(=O)O

As usually defined, the IC50 is the point on the concentration scale where inhibition reaches its midpoint. As a reminder, the solubility is how much of the substance goes into solution per volume.

The subject of data set [1] is C57B1/6 mice. The data set can be described thus: Glucose tolerance test after subcutaneous GLP-1 antagonist (acute in vivo study). Particulars: s.c. antagonist, i.p. glucose 1.5 g/kg four hours later. On the procedure: FIGS. 2A & 2B present data from a glucose tolerance test wherein mice are subcutaneously administered the GLP-1 antagonist followed four hours later by intraperitoneal administration of glucose (1.5 g glucose per kg body weight).
C57B1/6 mice were obtained from Jackson Laboratories. Mice were single- or group-housed on a 12:12 h light-dark cycle at 22° C. with free access to food and water. All studies were approved by and performed according to the guidelines of the Institutional Animal Care and Use Committee of the University of Cincinnati.
For the determination of glucose tolerance, mice were subjected to 6 h of fasting and injected intraperitoneally with glucose. Injections consisted of 1.5 g glucose per kg body weight (25% w/v D-glucose (Sigma) in 0.9% w/v saline). Tail blood glucose levels (mg dL-1) were measured using a hand-held glucometer (FreeStyle Freedom Lite) before 0 min and at 15, 30, 60, and 120 min after injection.
Mice received a subcutaneous injection of peptide (in PBS) either 1, 4, 8, 24, 48, 72, or 120 at varying doses before being challenged with an IP injection of dipeptidyl peptidase-IV-protected Ex-4 (0.65 nmol kg−1). A GTT was performed fifteen minutes after the GLP-1 injection. Tail blood glucose values were obtained as described above.

The target in data set [2] is T1, human GLP-1 receptor (Homo sapiens, UniProt P43220).
T1 construct: host or cells: HEK 293
The data set can be described thus: GLP-1 receptor-mediated cAMP induction, luciferase reporter gene assay (antagonism mode). In kind it is cell-based. Conditions: Table 2; HEK 293 cells, human GLP-1R, vs 0.05 nM GLP-1; read-out: Bioactivity IC50. As to the method: GLP-1 Receptor-Mediated cAMP Induction
The ability of peptides to stimulate or block cAMP induction at the GLP-1 receptor was examined by a luciferase-based reporter gene assay. Cotransfection of HEK 293 cells with the human GLP-1 receptor (Open Biosystems) and a cAMPinducible (cAMPresponsive element) luciferase gene constituted the cellular construct where receptor activation could be measured. Bioassays were performed by first serum depriving the cells for 16 h in 0.25% bovine growth serum (HyClone)-supplemented Dulbecco's modified Eagle's medium (Invitrogen) and then adding serial dilutions of the peptides over the appropriate concentration ranges in 96-well poly-D-lysine-coated plates (BD Biosciences). For antagonism assays, a constant concentration of GLP-1 (0.05 nM) was added to the assay plate after the diluted peptides. Incubation continued for 5 h at 37° C., 5% CO2 and was followed by the addition of an equivalent volume (100 μL) of LucLite luminescence substrate reagent (Perkin-Elmer). MicroBeta 1450 liquid scintillation counting (Perkin-Elmer) quantified the luminescence signal in counts per second (cps) after shaking the plate at 600 rpm for 3 min. Data was plotted using Origin software (OriginLab) and the effective concentration 50 (EC50) or inhibitory concentration 50 (IC50) was determined by sigmoidal fitting. Potency was determined by comparative analysis of relative EC50 or IC50 values. Each experiment was repeated at least three times with each sample assayed in duplicate.

Data set [3] in a line: Solubility of peptides in buffer. In kind it is physicochemical.

T1 sequence (P43220 24-463): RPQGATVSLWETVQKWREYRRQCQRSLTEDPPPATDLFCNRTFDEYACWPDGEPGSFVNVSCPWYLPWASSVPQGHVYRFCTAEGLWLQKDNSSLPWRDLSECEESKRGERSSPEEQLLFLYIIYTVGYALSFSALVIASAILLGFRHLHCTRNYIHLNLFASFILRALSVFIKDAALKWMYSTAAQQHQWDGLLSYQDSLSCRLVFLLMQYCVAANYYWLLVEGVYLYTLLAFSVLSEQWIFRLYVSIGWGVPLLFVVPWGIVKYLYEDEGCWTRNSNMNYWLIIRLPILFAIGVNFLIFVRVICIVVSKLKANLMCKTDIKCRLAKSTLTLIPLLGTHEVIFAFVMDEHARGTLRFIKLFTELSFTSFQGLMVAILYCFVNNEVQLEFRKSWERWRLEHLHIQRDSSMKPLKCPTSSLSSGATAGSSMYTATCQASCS

Take `CCCCCCCCCCCCCCCC(=O)N[C@@H](CCC(=O)NCCOCCOCC(=O)NCCCC[C@H](NC(=O)[C@H](CO)NC(=O)[C@@H]1CCCN1C(=O)[C@@H]1CCCN1C(=O)[C@@H]1CCCN1C(=O)[C@H](C)NC(=O)CNC(=O)[C@H](CO)NC(=O)[C@H](CO)NC(=O)[C@@H]1CCCN1C(=O)CNC(=O)CNC(=O)[C@H](CCCNC(=N)N)NC(=O)[C@@H](NC(=O)[C@H](CC(C)C)NC(=O)[C@H](Cc1c[nH]c2ccccc12)NC(=O)[C@H](CCC(=O)O)NC(=O)[C@@H](NC(=O)[C@H](Cc1ccccc1)NC(=O)[C@H](CCC(=O)O)NC(=O)[C@H](CCCNC(=N)N)NC(=O)[C@@H](NC(=O)[C@H](C)NC(=O)[C@H](CCC(N)=O)NC(=O)[C@H](CCC(=O)O)NC(=O)[C@H](CCC(=O)O)NC(=O)[C@H](CC(C)C)NC(=O)[C@H](Cc1ccc(O)cc1)NC(=O)[C@H](CCCNC(=N)N)NC(=O)[C@H](CO)NC(=O)[C@@H](NC(=O)[C@@H](N)CC(=O)O)C(C)C)C(C)C)[C@@H](C)CC)C(C)C)C(=O)O)C(=O)O` [SEQ ID NO: 16] (H-DVSRYLEEQAVREFIEWLVRGGPSSGAPPPSK([AEEA-γGlu-Palmitoyl])-OH): the “GLP-1 antagonist activity in glucose tolerance test” value in data set [1] (FIG. 2A) is “full antagonist”. The “Potency relative to the GLP-1 antagonist Ex-9-40 in glucose tolerance test” value in data set [1] (FIGS. 2A & 2B) is listed as “much higher potency”.

Consider `CCCCCCCCCCCCCCCC(=O)N[C@@H](CCC(=O)N[C@@H](CCC(=O)NCCOCCOCC(=O)NCCOCCOCC(=O)NCCCC[C@H](NC(=O)[C@H](CO)NC(=O)[C@@H]1CCCN1C(=O)[C@@H]1CCCN1C(=O)[C@@H]1CCCN1C(=O)[C@H](C)NC(=O)CNC(=O)[C@H](CO)NC(=O)[C@H](CO)NC(=O)[C@@H]1CCCN1C(=O)CNC(=O)CNC(=O)[C@H](CCCCN)NC(=O)[C@@H](NC(=O)[C@H](CC(C)C)NC(=O)[C@H](Cc1c[nH]c2ccccc12)NC(=O)[C@H](C)NC(=O)[C@@H](NC(=O)[C@H](Cc1ccccc1)NC(=O)[C@H](CCC(=O)O)NC(=O)[C@H](CCCNC(=N)N)NC(=O)[C@@H](NC(=O)[C@H](C)NC(=O)[C@H](CCC(N)=O)NC(=O)[C@H](CCC(=O)O)NC(=O)[C@H](CCC(=O)O)NC(=O)[C@H](CC(C)C)NC(=O)[C@H](Cc1ccc(O)cc1)NC(=O)[C@H](CO)NC(=O)[C@H](CO)NC(=O)[C@@H](NC(=O)[C@@H](N)CC(=O)O)C(C)C)C(C)C)[C@@H](C)CC)C(C)C)C(N)=O)C(=O)O)C(=O)O` [SEQ ID NO: 58] (H-DVSSYLEEQAVREFIAWLVKGGPSSGAPPPSK([AEEA-AEEA-γGlu-γGlu-Palmitoyl])-NH2; N-terminus assumed), for which the IC50 in data set [2] worked out at 11 nM.

On to `CCCCCCCCCCCCCCCC(=O)N[C@@H](CCC(=O)NCCOCCOCC(=O)NCCOCCOCC(=O)N[C@@H](CCC(=O)NCCCC[C@H](NC(=O)[C@H](CO)NC(=O)[C@@H]1CCCN1C(=O)[C@@H]1CCCN1C(=O)[C@@H]1CCCN1C(=O)[C@H](C)NC(=O)CNC(=O)[C@H](CO)NC(=O)[C@H](CO)NC(=O)[C@@H]1CCCN1C(=O)CNC(=O)CNC(=O)[C@H](CCCCN)NC(=O)[C@@H](NC(=O)[C@H](CC(C)C)NC(=O)[C@H](Cc1c[nH]c2ccccc12)NC(=O)[C@H](C)NC(=O)[C@@H](NC(=O)[C@H](Cc1ccccc1)NC(=O)[C@H](CCC(=O)O)NC(=O)[C@H](CCCNC(=N)N)NC(=O)[C@@H](NC(=O)[C@H](C)NC(=O)[C@H](CCC(N)=O)NC(=O)[C@H](CCC(=O)O)NC(=O)[C@H](CCC(=O)O)NC(=O)[C@H](CC(C)C)NC(=O)[C@H](Cc1ccc(O)cc1)NC(=O)[C@H](CO)NC(=O)[C@H](CO)NC(=O)[C@@H](NC(=O)[C@@H](N)CC(=O)O)C(C)C)C(C)C)[C@@H](C)CC)C(C)C)C(N)=O)C(=O)O)C(=O)O` [SEQ ID NO: 57] (H-DVSSYLEEQAVREFIAWLVKGGPSSGAPPPSK([γGlu-AEEA-AEEA-γGlu-Palmitoyl])-NH2; N-terminus assumed), for which the IC50 in data set [2] came out at 9 nM. The same molecule came in with a solubility in data set [3] (pH 7.7) above 25000 µg/mL.

Regarding `CCCCCCCCCCCCCCCC(=O)NCCOCCOCC(=O)NCCOCCOCC(=O)N[C@@H](CCC(=O)N[C@@H](CCC(=O)NCCCC[C@H](NC(=O)[C@H](CO)NC(=O)[C@@H]1CCCN1C(=O)[C@@H]1CCCN1C(=O)[C@@H]1CCCN1C(=O)[C@H](C)NC(=O)CNC(=O)[C@H](CO)NC(=O)[C@H](CO)NC(=O)[C@@H]1CCCN1C(=O)CNC(=O)CNC(=O)[C@H](CCCCN)NC(=O)[C@@H](NC(=O)[C@H](CC(C)C)NC(=O)[C@H](Cc1c[nH]c2ccccc12)NC(=O)[C@H](C)NC(=O)[C@@H](NC(=O)[C@H](Cc1ccccc1)NC(=O)[C@H](CCC(=O)O)NC(=O)[C@H](CCCNC(=N)N)NC(=O)[C@@H](NC(=O)[C@H](C)NC(=O)[C@H](CCC(N)=O)NC(=O)[C@H](CCC(=O)O)NC(=O)[C@H](CCC(=O)O)NC(=O)[C@H](CC(C)C)NC(=O)[C@H](Cc1ccc(O)cc1)NC(=O)[C@H](CO)NC(=O)[C@H](CO)NC(=O)[C@@H](NC(=O)[C@@H](N)CC(=O)O)C(C)C)C(C)C)[C@@H](C)CC)C(C)C)C(N)=O)C(=O)O)C(=O)O` [SEQ ID NO: 61] (H-DVSSYLEEQAVREFIAWLVKGGPSSGAPPPSK([γGlu-γGlu-AEEA-AEEA-Palmitoyl])-NH2; N-terminus assumed), the half-maximal inhibitory concentration (IC50) in data set [2] stood at 6 nM. This molecule gave a solubility in data set [3] (pH 7.7) above 25000 µg/mL.

Consider `CCCCCCCCCCCCCCCC(=O)NCCCC[C@H](NC(=O)[C@H](CO)NC(=O)[C@@H]1CCCN1C(=O)[C@@H]1CCCN1C(=O)[C@@H]1CCCN1C(=O)[C@H](C)NC(=O)CNC(=O)[C@H](CO)NC(=O)[C@H](CO)NC(=O)[C@@H]1CCCN1C(=O)CNC(=O)CNC(=O)C(C)(C)NC(=O)[C@@H](NC(=O)[C@H](CCCCN)NC(=O)[C@H](Cc1c[nH]c2ccccc12)NC(=O)[C@H](C)NC(=O)[C@@H](NC(=O)[C@H](Cc1ccccc1)NC(=O)[C@H](CCC(=O)O)NC(=O)[C@H](CCCNC(=N)N)NC(=O)[C@@H](NC(=O)[C@H](C)NC(=O)[C@H](CCC(N)=O)NC(=O)[C@H](CCC(=O)O)NC(=O)[C@H](CCC(=O)O)NC(=O)[C@H](CC(C)C)NC(=O)[C@H](Cc1ccc(O)cc1)NC(=O)[C@H](CO)NC(=O)[C@H](CO)NC(=O)[C@@H](NC(=O)[C@@H](N)CC(=O)O)C(C)C)C(C)C)[C@@H](C)CC)C(C)C)C(N)=O` [SEQ ID NO: 82], for which the solubility in data set [3] (pH 7.4) was 100 µg/mL (≈ 27.7 µM).

In data set [3] (pH 7.4), `CCCCCCCCCCCCCCCC(=O)NCCCC[C@H](NC(=O)[C@H](CO)NC(=O)[C@@H]1CCCN1C(=O)[C@@H]1CCCN1C(=O)[C@@H]1CCCN1C(=O)[C@H](C)NC(=O)CNC(=O)[C@H](CO)NC(=O)[C@H](CO)NC(=O)[C@@H]1CCCN1C(=O)CNC(=O)CNC(=O)[C@H](CCCCN)NC(=O)[C@@H](NC(=O)C(C)(C)NC(=O)[C@H](Cc1c[nH]c2ccccc12)NC(=O)[C@H](C)NC(=O)[C@@H](NC(=O)[C@H](Cc1ccccc1)NC(=O)[C@H](CCC(=O)O)NC(=O)[C@H](CCCNC(=N)N)NC(=O)[C@@H](NC(=O)[C@H](C)NC(=O)[C@H](CCC(N)=O)NC(=O)[C@H](CCC(=O)O)NC(=O)[C@H](CCC(=O)O)NC(=O)[C@H](CC(C)C)NC(=O)[C@H](Cc1ccc(O)cc1)NC(=O)[C@H](CO)NC(=O)[C@H](CO)NC(=O)[C@@H](NC(=O)[C@@H](N)CC(=O)O)C(C)C)C(C)C)[C@@H](C)CC)C(C)C)C(N)=O` [SEQ ID NO: 44] (H-DVSSYLEEQAVREFIAW[Aib]VKGGPSSGAPPPSK(Palmitoyl)-NH2; N-terminus assumed) came in with a solubility of 100 µg/mL (≈ 27.7 µM).
